Measured values reported in patent publication US20230172923A1, “METHODS OF TREATING CYTOKINE-RELATED ADVERSE EVENTS” (BRISTOL-MYERS SQUIBB COMPANY, priority 2020, published 2023).

Experiments:
Format in all cases: cell-based, human
[1] = tested on: IL-6, IL-8, IL-1β, GM-CSF, MDC, MIP-1α, MIP-1β and TNF-α; assay: LPS-induced secretion of proinflammatory cytokines from PBMCs (whole multiplex panel, result in words); conditions: pre-treatment 1 hour, 1 ng/ml LPS 18 hours
Procedure: Peripheral blood mononuclear cells (PBMCs) from healthy volunteers were seeded at a concentration of 2×10^6 cells/ml and treated with the indicated concentrations of IMiD compounds or control DMSO (0.25%) for 1 hour, before stimulation with 1 ng/ml LPS. After 18 hours, proinflammatory cytokine levels in the supernatant were assessed by multiplex cytokine analysis.
(§1) Peripheral blood mononuclear cells (PBMCs) were isolated from the blood of healthy human donors by Ficoll cell separation. The PBMCs were seeded at a concentration of 2×10^6 cells/ml and treated for 1 hour at 37° C. with various concentrations of IMiD compounds or control DMSO (0.25%), before stimulation with 1 ng/ml LPS for 18 hours at 37° C.
(§2) Supernatant samples were subjected to multiplex cytokine analysis (Luminex IS100 instrument) to quantify secreted levels of IL-6, IL-8, IL1-beta (IL-1β), GM-CSF, MDC, MIP-1alpha (MIP-1α), MIP-1beta (MIP-1β) and TNF-alpha (TNF-α) (see e.g. FIGS. 7A-C).

TNF-α = assay: LPS-stimulated PBMC cytokine production, multiplex cytokine analysis: TNF-α; conditions: PBMC 2×10^6 cells/ml, compound 1 hour, then 1 ng/ml LPS 18 hours
Procedure: as §1, §2
(§3) IC50 (half maximal inhibitory concentration) values were calculated to measure the potency of each IMiD compound in inhibiting LPS-stimulated secretion of each cytokine (see Table 25).

IL-1β = assay: LPS-stimulated PBMC cytokine production, multiplex cytokine analysis: IL-1β; conditions: PBMC 2×10^6 cells/ml, compound 1 hour, then 1 ng/ml LPS 18 hours
Procedure: (§4) Peripheral blood mononuclear cells (PBMCs) were isolated from the blood of healthy human donors by Ficoll cell separation. […] Supernatant samples were subjected to multiplex cytokine analysis (Luminex IS100 instrument) to quantify secreted levels of IL-6, IL-8, IL1-beta (IL-1β), GM-CSF, MDC, MIP-1alpha (MIP-1α), MIP-1beta (MIP-1β) and TNF-alpha (TNF-α) (see e.g. FIGS. 7A-C). IC50 (half maximal inhibitory concentration) values were calculated to measure the potency of each IMiD compound in inhibiting LPS-stimulated secretion of each cytokine (see Table 25).

MIP-1α = assay: LPS-stimulated PBMC cytokine production, multiplex cytokine analysis: MIP-1α; conditions: PBMC 2×10^6 cells/ml, compound 1 hour, then 1 ng/ml LPS 18 hours
Procedure: as §1, §2, §3

IL-6 = assay: LPS-stimulated PBMC cytokine production, multiplex cytokine analysis: IL-6; conditions: PBMC 2×10^6 cells/ml, compound 1 hour, then 1 ng/ml LPS 18 hours
Procedure: as §4

MDC = assay: LPS-stimulated PBMC cytokine production, multiplex cytokine analysis: MDC; conditions: PBMC 2×10^6 cells/ml, compound 1 hour, then 1 ng/ml LPS 18 hours
Procedure: as §4

GM-CSF = assay: LPS-stimulated PBMC cytokine production, multiplex cytokine analysis: GM-CSF; conditions: PBMC 2×10^6 cells/ml, compound 1 hour, then 1 ng/ml LPS 18 hours
Procedure: as §4

MIP-1β = assay: LPS-stimulated PBMC cytokine production, multiplex cytokine analysis: MIP-1β; conditions: PBMC 2×10^6 cells/ml, compound 1 hour, then 1 ng/ml LPS 18 hours
Procedure: as §4

IL-8 = assay: LPS-stimulated PBMC cytokine production, multiplex cytokine analysis: IL-8; conditions: PBMC 2×10^6 cells/ml, compound 1 hour, then 1 ng/ml LPS 18 hours
Procedure: as §1, §2, §3

SMILES | LPS-induced secretion of proinflammatory cytokines from PBMCs (effect in words) [1] | IC50 (TNF-α; Homo sapiens, PBMC) [µM] | IC50 (IL-1β; Homo sapiens, PBMC) [µM] | IC50 (MIP-1α; Homo sapiens, PBMC) [µM] | IC50 (IL-6; Homo sapiens, PBMC) [µM] | IC50 (MDC; Homo sapiens, PBMC) [µM] | IC50 (GM-CSF; Homo sapiens, PBMC) [µM] | IC50 (MIP-1β; Homo sapiens) [µM] | IC50 (IL-8; Homo sapiens) [µM] | IC50 (TNF-α) [µM] | IC50 (IL-1β) [µM] | IC50 (MIP-1α) [µM] | IC50 (IL-6) [µM] | IC50 (MDC) [µM] | IC50 (GM-CSF) [µM] | IC50 (MIP-1β) [µM] | IC50 (IL-8) [µM] | IC50 (TNF-α; Homo sapiens) [µM] | IC50 (IL-1β; Homo sapiens) [µM] | IC50 (IL-6; Homo sapiens) [µM]
O=C1CCC(N2C(=O)c3ccccc3C2=O)C(=O)N1 (stereo not shown) [Thalidomide, 2-(2,6-dioxopiperidin-3-yl)-2,3 dihydro-1H-isoindole-1,3-dione] | minimal to no effect | > 10 | > 10 | > 10 | > 10 | > 10 | > 10 | > 10 | > 10 | – | – | – | – | – | – | – | – | – | – | –
O=C1CCC(N2Cc3c(OCc4ccc(CN5CCOCC5)cc4)cccc3C2=O)C(=O)N1 (single isomer, unassigned) [Compound B] | inhibited | – | – | – | – | – | – | – | – | 0.0095 | 0.0062 | 0.45 | 0.083 | 0.012 | 0.039 | > 10 | > 10 | – | – | –
Cc1nc2cccc(N)c2c(=O)n1C1CCC(=O)NC1=O (stereo not shown) [Avadomide, 3-(5-amino-2-methyl-4-oxo-3,4-dihydroquinazolin-3-yl)piperidine-2,6-dione] | inhibited | – | – | 0.3 | – | – | – | > 10 | > 10 | – | – | – | – | – | – | – | – | 0.034 | 0.054 | 0.06
O=C1CCC(N2Cc3c(OCc4ccc(CN5CCOCC5)cc4)cccc3C2=O)C(=O)N1 (single isomer, unassigned) [Compound A] | inhibited | – | – | – | – | – | – | > 10 | > 10 | 0.0018 | 0.00085 | 0.19 | 0.01 | 0.0026 | 0.0092 | – | – | – | – | –
